According to PMC3871636 (PLoS ONE, 2013):

Columns and labels:
[1] = molecular target: double-labeled CYP3A4 (C64/C468)-DY/ER (Homo sapiens, UniProt P08684, S18F, form not given); assay: Time-resolved LRET (phosphorescence lifetime measurements)
Source text: (§1) The excitation wavelength was set to 540 nm.

[2] = molecular target: double-labeled CYP3A4 (C64/C468)-ER/DY (Homo sapiens, UniProt P08684, S18F, form not given); assay: as above
Source text: as §1

[3] = molecular target: T1, double-labeled CYP3A4 C377/C468-DY/ER (Homo sapiens, UniProt P08684, S18F, form not given); assay: as above
Source text: as §1

[4] = molecular target: T2, double-labeled CYP3A4 C64/C121-DY/ER (Homo sapiens, UniProt P08684, A121C/C239S/C377S/C468A/C98S/S18F); assay: as above
Description: (§2) All absorbance and fluorescence assays (including the time-resolved fluorescence measurements) were performed at a protein concentration ≤1 µM at 25°C with continuous stirring. Absorbance spectra were recorded with an S2000 rapid scanning CCD spectrometer (Ocean Optics). Ligand binding assays were done in 100 mM Na-Hepes buffer, pH 7.4, containing 0.5 mM EDTA.
(§3) Fluorescence-based ligand binding assays were done under anaerobic conditions. Anaerobiosis was achieved using an oxygen-scavenging system consisting of protecatechuate-3,4-dioxygenase (0.5 units/ml) and 5 mM protocatechuic acid. The steady state and time-resolved phosphorescence measurements were performed with the use of a Cary Eclipse fluorescence spectrophotometer (Varian/Agilent Technologies). The excitation wavelength was set to 540 nm. Spectra were taken from 650 to 860 nm with 100 µs delay.
The treatment of the time-resolved decay traces was performed using a bi-exponential approximation. The efficiency of time-resolved LRET was calculated using the equation [drawing 2] (Eq.2)
In this equation τda and τd designate the average lifetime of the excited state of the donor in the presence and absence of the acceptor, respectively. These average lifetimes are determined as τ = α1τ1+α2τ2, where τ1,2 and α1,2 stay for the lifetime and the relative amplitude of each of the two exponential terms. In our calculations of the lifetime in double-labeled C64/C468, C377/C468 and C64/C121 proteins we used the lifetimes of phosphorescence measured with the respective proteins labeled with ERIA at a label:protein ratio 2∶1 as the estimates of τd.
(§4) Distances were calculated using the equation: [drawing 3] (Eq.3) where R 0 is the Förster distance, and R is the distance between the donor and acceptor. R 0 was calculated with the use of PhotoChemCad software. In these calculations, we used the values of the orientation factor (κ^2) and the refractive index (n) of 0.667 and 1.4, respectively.

[5] = molecular target: CYP3A4 (double-labeled (C64/C468)-DY/ER) (Homo sapiens, UniProt P08684, form not given/S18F); assay: Steady-state LRET titration (delayed emission); format: binding; conditions: human, purified double-labeled CYP3A4 (C64/C468)-DY/ER protein, pH 7.4; (C64/C468)-DY/ER; LRET titration; read-out: K d, steady-state fluorescence
Description: as §2, §3
(§5) Quantitative interpretation of LRET results was also based on the use of PCA applied to a series of emission spectra normalized on integral intensity. […] Intensity of the donor and acceptor fluorescence obtained in this way were used in determination of the efficiency of steady-state LRET using the equation [drawing 1] (Eq.1) where I ad is emission intensity of the acceptor, I da is the residual donor emission in the presence of acceptor (I da), Φ a and Φ d are the quantum yield of the fluorescence of acceptor and the quantum yield of the phosphorescence of donor, respectively.
as §4
(§6) When fitting the results of titration experiments, where the changes in the monitored signal A S (fraction of the enzyme in the high-spin state, intensity or the lifetime of the donor phosphorescence at a given substrate concentration) were assumed to be proportional to [ES], this equation was complemented with the offset A 0 and the scaling factor A max to yield the following relationship: [drawing 5] (Eq.5)

[6] = molecular target: T1, double-labeled CYP3A4 C377/C468-DY/ER; assay: Steady-state LRET titration (delayed emission); format: binding; conditions: Table S2, protein C377/C468-ER/DY
Description: as §2, §3, §5, §4, §6

[7] = molecular target: T2, double-labeled CYP3A4 C64/C121-DY/ER; assay: Steady-state LRET titration (delayed emission); conditions: Table S2, protein C64/C121-ER/DY
Description: as §2, §3, §5, §4, §6

CYP3A4 (C64/C468 mutant) = CYP3A4 (C64/C468 mutant) (Homo sapiens, UniProt P08684, form not given/S18F); assay: Ligand-induced spin shift, absorbance titration; format: binding; conditions: human, purified CYP3A4(C64/C468) mutant protein, pH 7.4; read-out: K D or S 50
Description: as §2
(§7) Absorbance spectra obtained in titration experiments were analyzed with a principal component analysis (PCA) procedure complemented with least-square approximation of the principal vectors with a combination of the prototypical spectra of the CYP3A4 low-spin, high-spin and Type II-substrate-bound ferric CYP3A4 P450 states as described, [31].
as §6

[8] = molecular target: CYP3A4 (C377/C468 mutant) (Homo sapiens, UniProt P08684, form not given/S18F); assay: Ligand-induced spin shift, absorbance titration; format: binding; conditions: human, purified CYP3A4(C377/C468) mutant protein, pH 7.4; read-out: K D or S 50
Description: as §2, §7, §6

[9] = (C64/C468)-DY/ER, nearly-saturating ligand: ANF 100 µM, bromocriptine 2.5 µM, cholesterol 50 µM, testosterone 100 µM
[10] = Table S1, (C64/C468)-DY/ER, same ligand concentrations
[11] = Table S2, C64/C468-DY/ER, same ligand concentrations
[12] = (C64/C468)-ER/DY, nearly-saturating ligand: ANF 100 µM, bromocriptine 2.5 µM, cholesterol 50 µM, testosterone 100 µM
[13] = Table S1, (C64/C468)-ER/DY, same ligand concentrations
[14] = Table S2, C64/C468-ER/DY, same ligand concentrations
[15] = Table S1, protein (C377/C468)-ER/DY, same ligand concentrations
[16] = Table S2, protein C377/C468-ER/DY, same ligand concentrations
[17] = Table S1, protein (C64/C121)-ER/DY, same ligand concentrations
[18] = Table S2, protein C64/C121-ER/DY, same ligand concentrations
[19] = 1-PB 40 µM, ANF 100 µM, BCT 2.5 µM, cholesterol 100 µM, testosterone 100 µM

T2 sequence (P08684 with tags, fused parts or gaps S18F/C98S/A121C/C239S/C377S/C468A limits assumed): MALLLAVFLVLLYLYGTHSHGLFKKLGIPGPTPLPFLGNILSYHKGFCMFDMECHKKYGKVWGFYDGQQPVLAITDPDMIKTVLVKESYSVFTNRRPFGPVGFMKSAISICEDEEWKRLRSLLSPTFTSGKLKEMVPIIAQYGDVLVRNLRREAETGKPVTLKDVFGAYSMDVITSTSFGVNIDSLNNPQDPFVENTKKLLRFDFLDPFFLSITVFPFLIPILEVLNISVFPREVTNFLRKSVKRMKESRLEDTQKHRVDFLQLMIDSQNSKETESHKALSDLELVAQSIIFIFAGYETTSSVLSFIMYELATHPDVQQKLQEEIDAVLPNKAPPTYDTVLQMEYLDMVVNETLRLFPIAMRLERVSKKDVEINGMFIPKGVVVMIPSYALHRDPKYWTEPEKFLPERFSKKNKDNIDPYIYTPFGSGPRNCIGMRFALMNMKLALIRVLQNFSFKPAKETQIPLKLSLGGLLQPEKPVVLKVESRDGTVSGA
Sequence of double-labeled CYP3A4 (C64/C468)-DY/ER (P08684 13-503 S18F, form open): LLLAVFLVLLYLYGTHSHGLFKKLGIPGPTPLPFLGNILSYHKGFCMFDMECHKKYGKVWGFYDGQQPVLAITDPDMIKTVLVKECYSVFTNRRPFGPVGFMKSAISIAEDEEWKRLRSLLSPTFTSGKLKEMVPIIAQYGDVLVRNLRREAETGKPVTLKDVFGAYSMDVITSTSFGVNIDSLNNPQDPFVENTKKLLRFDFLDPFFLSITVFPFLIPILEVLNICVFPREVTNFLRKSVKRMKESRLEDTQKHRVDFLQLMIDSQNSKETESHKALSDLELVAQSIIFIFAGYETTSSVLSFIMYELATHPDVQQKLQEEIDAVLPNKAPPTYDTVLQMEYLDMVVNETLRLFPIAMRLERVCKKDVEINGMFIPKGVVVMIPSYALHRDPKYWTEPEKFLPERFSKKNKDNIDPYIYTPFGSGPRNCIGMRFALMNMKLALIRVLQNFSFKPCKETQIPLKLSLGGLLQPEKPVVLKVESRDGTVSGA
Sequence of double-labeled CYP3A4 (C64/C468)-ER/DY (P08684 13-503 S18F, form open): as above
T1 sequence (P08684 13-503 S18F, form open): as above
Sequence of CYP3A4 (C377/C468 mutant) (P08684 13-503 S18F, form open): as above
Sequence of CYP3A4 (double-labeled (C64/C468)-DY/ER) (P08684 13-503 S18F, form open): as above
Sequence of CYP3A4 (C64/C468 mutant) (P08684 13-503 S18F, form open): as above

OCCCCc1ccc2ccc3cccc4ccc1c2c34 [1-PB, 1-pyrenebutanol]
ΔELT (change in LRET efficiency), lifetime measurements [1, 9]: +3.8±1%
ΔR (change in interprobe distance), lifetime measurements [1, 9]: −0.9±0.1 Å
τ1 (phosphorescence decay time with ligand) ([1]; Table S1, (C64/C468)-DY/ER, 1-PB 40 µM, ANF 100 µM, BCT 2.5 µM, cholesterol 100 µM, testosterone 100 µM, bi-exponential fit): 53 ± 1 µs
F1 (fraction of first exponential) [1, 10]: 46 ± 3%
τ2 (phosphorescence decay time with ligand) [1, 10]: 195 ± 7 µs
τav (average phosphorescence lifetime with ligand) [1, 10]: 129 ± 1 µs
E (LRET efficiency with ligand), lifetime measurements ([1]; Table S2, C64/C468-DY/ER, 1-PB 40 µM, ANF 100 µM, BCT 2.5 µM, cholesterol 100 µM, testosterone 100 µM): 45 ± 1%
R (interprobe distance with ligand), lifetime measurements [1, 11]: 35.8 ± 0.1 Å
ΔR, lifetime measurements [1, 11]: -0.9 ± 0.1 Å
ΔELT (change in LRET efficiency), lifetime measurements [2, 12]: −1.5±1%
ΔR (change in interprobe distance), lifetime measurements [2, 12]: 0.4±0.1 Å
τ1 (phosphorescence decay time with ligand) ([2]; Table S1, (C64/C468)-ER/DY, 1-PB 40 µM, ANF 100 µM, BCT 2.5 µM, cholesterol 100 µM, testosterone 100 µM, bi-exponential fit): 63 ± 2 µs
F1 (fraction of first exponential) [2, 13]: 60 ± 8%
τ2 (phosphorescence decay time with ligand) [2, 13]: 241 ± 5 µs
τav (average phosphorescence lifetime with ligand) [2, 13]: 138 ± 4 µs
E (LRET efficiency with ligand), lifetime measurements ([2]; Table S2, C64/C468-ER/DY, 1-PB 40 µM, ANF 100 µM, BCT 2.5 µM, cholesterol 100 µM, testosterone 100 µM): 41 ± 1%
R (interprobe distance with ligand), lifetime measurements [2, 14]: 36.7 ± 0.1 Å
ΔR, lifetime measurements [2, 14]: 0.4 ± 0.1 Å
τ1 (phosphorescence decay time with ligand) ([3]; Table S1, protein (C377/C468)-ER/DY, 1-PB 40 µM, ANF 100 µM, BCT 2.5 µM, cholesterol 100 µM, testosterone 100 µM, bi-exponential fit): 45 ± 5 µs
F1 (fraction of first exponential) [3, 15]: 30 ± 3%
τ2 (phosphorescence decay time with ligand) [3, 15]: 149 ± 5 µs
τav (average phosphorescence lifetime with ligand) [3, 15]: 118 ± 2 µs
E (LRET efficiency with ligand), lifetime measurements ([3]; Table S2, protein C377/C468-ER/DY, 1-PB 40 µM, ANF 100 µM, BCT 2.5 µM, cholesterol 100 µM, testosterone 100 µM): 35 ± 1%
R (interprobe distance with ligand), lifetime measurements [3, 16]: 38.3 ± 0.3 Å
ΔR, lifetime measurements [3, 16]: 1.6 ± 0.3 Å
τ1 (phosphorescence decay time with ligand) ([4]; Table S1, protein (C64/C121)-ER/DY, 1-PB 40 µM, ANF 100 µM, BCT 2.5 µM, cholesterol 100 µM, testosterone 100 µM, bi-exponential fit): 57 ± 1 µs
F1 (fraction of first exponential) [4, 17]: 35 ± 1%
τ2 (phosphorescence decay time with ligand) [4, 17]: 199 ± 12 µs
τav (average phosphorescence lifetime with ligand) [4, 17]: 149 ± 9 µs
E (LRET efficiency with ligand), lifetime measurements ([4]; Table S2, protein C64/C121-ER/DY, 1-PB 40 µM, ANF 100 µM, BCT 2.5 µM, cholesterol 100 µM, testosterone 100 µM): 46 ± 5%
R (interprobe distance with ligand), lifetime measurements [4, 18]: 35.4 ± 0.8 Å
ΔR, lifetime measurements [4, 18]: 0.4 ± 0.8 Å
Kd [5]: 22.2 ± 4 µM
E (LRET efficiency with ligand), steady-state measurements [6, 19]: 16± 1%
R (interprobe distance with ligand), steady-state measurements ([6]; same ligand concentrations): 44.5 ± 0.7 Å
ΔR, steady-state measurements ([6]; same ligand concentrations): −0.2 ± 0.7 Å
E (LRET efficiency with ligand), steady-state measurements [7, 19]: 18 ± 1%
R (interprobe distance with ligand), steady-state measurements ([7]; same ligand concentrations): 43.4 ± 0.7 Å
ΔR, steady-state measurements ([7]; same ligand concentrations): 0.8 ± 0.7 Å
Kd (CYP3A4 (C64/C468 mutant)): 5.7 ± 1.7 µM
Kd [8]: 14 ± 2 µM
